From patent US20070049564A1 (Wyeth, priority 2005, published 2007)
Values after ≈ are worked out from the molar mass of the structure shown. Read-outs that look alike come from different tables or passages of the source.

Experiments:
Assay in all cases: MIC, broth microdilution
[1] = system: S. epidermidis GC 4935; conditions: Staphylococcus epidermidis
[2] = system: S. pyogenes GC 4563; conditions: Streptococcus pyogenes
[3] = system: S. pneumoniae* GC 4465; conditions: Streptococcus pneumoniae
[4] = system: E. faecalis GC 2267; conditions: Enterococcus faecalis
[5] = system: E. coli GC 2232; conditions: Escherichia coli
[6] = system: S. aureus GC 6335; conditions: Staphylococcus aureus
[7] = system: S. typhimurium GC 2172; conditions: Salmonella enterica, TYPHIMURIUM
[8] = system: c. albicans GC 3066
[9] = system: S. pneumoniae+ GC 4465; conditions: Streptococcus pneumoniae
Method: Antimicrobial susceptibility testing. The in vitro activities of the antibiotics are determined by the broth microdilution method as recommended by the National Committee for Clinical Laboratory Standards (NCCLS) (1). Mueller-Hinton II broth (MHBII)(BBL Cockeysville, Md.) is the medium employed in the testing procedures. Microtiter plates containing serial dilutions of each antimicrobial agent are inoculated with each organism to yield the appropriate density (10^5 CFU/ml) in a 100 μl final volume. The plates are incubated for 18-22 hours at 35° C. in ambient air.
Representative compounds were first incubated in mouse serum for an hour prior to the in vitro testing against a panel of selected gram-positive and gram-negative bacteria strains. All compounds were also pre-incubated in water for an hour prior to testing as control.

[10] = system: S. aureus GC 6466; conditions: Staphylococcus aureus
[11] = system: E. coli GC 3226; conditions: Escherichia coli
[12] = system: S. aureus GC 1079; conditions: Staphylococcus aureus
[13] = system: E. coli GC 2234; conditions: Escherichia coli
[14] = system: S. aureus GC 2216; conditions: Staphylococcus aureus
[15] = system: E. faecium GC 4556; conditions: Enterococcus faecium
[16] = system: E. coli GC 2272; conditions: Escherichia coli
[17] = system: E. faecium GC 2243; conditions: Enterococcus faecium
[18] = system: E. coli GC 2231; conditions: Escherichia coli
[19] = system: S. aureus GC 1131; conditions: Staphylococcus aureus
[20] = read-out: MINIMAL INHIBITORY CONCENTRATION MIC, Human Serum
[21] = read-out: MINIMAL INHIBITORY CONCENTRATION MIC, Mouse Serum
[22] = read-out: MINIMAL INHIBITORY CONCENTRATION MIC, Water

Compound: COC(=O)N(CC(=O)Nc1cc(N(C)C)c2c(c1O)C(=O)C1=C(O)[C@]3(O)C(=O)C(C(N)=O)=C(O)[C@@H](N(C)C)[C@@H]3C[C@@H]1C2)C(C)(C)C [Example 60, methyl 2-{[(5aR,6aS,7S,10aS)-9-(aminocarbonyl)-4,7-bis(dimethylamino)-1,8,10a,11-tetrahydroxy-10,12-dioxo-5,5a,6,6a,7,10,10a,12-octahydrotetracen-2-yl]amino}-2-oxoethyl(tert-butyl)carbamate]
- MIC ([1]; GC4935, read-out: MINIMAL INHIBITORY CONCENTRATION MIC, Human Serum): 8 µg/mL (≈ 12.4 µM)
- MIC ([1]; GC4935, read-out: MINIMAL INHIBITORY CONCENTRATION MIC, Mouse Serum): 8 µg/mL (≈ 12.4 µM)
- MIC ([1]; GC4935, read-out: MINIMAL INHIBITORY CONCENTRATION MIC, Water): 16 µg/mL (≈ 24.9 µM)
- MIC ([2]; GC4563, read-out: MINIMAL INHIBITORY CONCENTRATION MIC, Human Serum): 0.5 µg/mL (≈ 0.777 µM)
- MIC ([2]; GC4563, read-out: MINIMAL INHIBITORY CONCENTRATION MIC, Mouse Serum): 1 µg/mL (≈ 1.55 µM)
- MIC ([2]; GC4563, read-out: MINIMAL INHIBITORY CONCENTRATION MIC, Water): 2 µg/mL (≈ 3.11 µM)
- MIC [3, 20]: 1 µg/mL (≈ 1.55 µM)
- MIC [3, 21]: 1 µg/mL (≈ 1.55 µM)
- MIC [3, 22]: 2 µg/mL (≈ 3.11 µM)
- MIC ([4]; GC2267, read-out: MINIMAL INHIBITORY CONCENTRATION MIC, Human Serum): 4 µg/mL (≈ 6.21 µM)
- MIC ([4]; GC2267, read-out: MINIMAL INHIBITORY CONCENTRATION MIC, Mouse Serum): 8 µg/mL (≈ 12.4 µM)
- MIC ([4]; GC2267, read-out: MINIMAL INHIBITORY CONCENTRATION MIC, Water): 8 µg/mL (≈ 12.4 µM)
- MIC ([5]; GC2232, read-out: MINIMAL INHIBITORY CONCENTRATION MIC, Human Serum): > 64 µg/mL
- MIC ([5]; GC2232, read-out: MINIMAL INHIBITORY CONCENTRATION MIC, Mouse Serum): > 64 µg/mL
- MIC ([5]; GC2232, read-out: MINIMAL INHIBITORY CONCENTRATION MIC, Water): > 64 µg/mL
- MIC ([6]; GC6335, read-out: MINIMAL INHIBITORY CONCENTRATION MIC, Human Serum): 8 µg/mL (≈ 12.4 µM)
- MIC ([6]; GC6335, read-out: MINIMAL INHIBITORY CONCENTRATION MIC, Mouse Serum): 8 µg/mL (≈ 12.4 µM)
- MIC ([6]; GC6335, read-out: MINIMAL INHIBITORY CONCENTRATION MIC, Water): 8 µg/mL (≈ 12.4 µM)
- MIC [7, 20]: > 64 µg/mL
- MIC [7, 21]: > 64 µg/mL
- MIC [7, 22]: > 64 µg/mL
- MIC ([8]; Candida albicans, GC3066, read-out: MINIMAL INHIBITORY CONCENTRATION MIC): > 64 µg/mL
- MINIMAL INHIBITORY CONCENTRATION MIC ([8]; Human Serum): >64 UG/ML
- MINIMAL INHIBITORY CONCENTRATION MIC ([8]; Mouse Serum): >64 UG/ML
- MIC [9, 20]: 2 µg/mL (≈ 3.11 µM)
- MIC [9, 21]: 4 µg/mL (≈ 6.21 µM)
- MIC [9, 22]: 4 µg/mL (≈ 6.21 µM)
- MIC ([10]; GC6466, read-out: MINIMAL INHIBITORY CONCENTRATION MIC, Human Serum): 4 µg/mL (≈ 6.21 µM)
- MIC ([10]; GC6466, read-out: MINIMAL INHIBITORY CONCENTRATION MIC, Mouse Serum): 4 µg/mL (≈ 6.21 µM)
- MIC ([10]; GC6466, read-out: MINIMAL INHIBITORY CONCENTRATION MIC, Water): 8 µg/mL (≈ 12.4 µM)
- MIC ([11]; GC3226, read-out: MINIMAL INHIBITORY CONCENTRATION MIC, Human Serum): > 64 µg/mL
- MIC ([11]; GC3226, read-out: MINIMAL INHIBITORY CONCENTRATION MIC, Mouse Serum): > 64 µg/mL
- MIC ([11]; GC3226, read-out: MINIMAL INHIBITORY CONCENTRATION MIC, Water): > 64 µg/mL
- MIC ([12]; GC1079, read-out: MINIMAL INHIBITORY CONCENTRATION MIC, Human Serum): 2 µg/mL (≈ 3.11 µM)
- MIC ([12]; GC1079, read-out: MINIMAL INHIBITORY CONCENTRATION MIC, Mouse Serum): 2 µg/mL (≈ 3.11 µM)
- MIC ([12]; GC1079, read-out: MINIMAL INHIBITORY CONCENTRATION MIC, Water): 4 µg/mL (≈ 6.21 µM)
- MIC ([13]; GC2234, read-out: MINIMAL INHIBITORY CONCENTRATION MIC, Human Serum): > 64 µg/mL
- MIC ([13]; GC2234, read-out: MINIMAL INHIBITORY CONCENTRATION MIC, Mouse Serum): > 64 µg/mL
- MIC ([13]; GC2234, read-out: MINIMAL INHIBITORY CONCENTRATION MIC, Water): > 64 µg/mL
- MIC ([14]; GC2216, read-out: MINIMAL INHIBITORY CONCENTRATION MIC, Human Serum): 2 µg/mL (≈ 3.11 µM)
- MIC ([14]; GC2216, read-out: MINIMAL INHIBITORY CONCENTRATION MIC, Mouse Serum): 2 µg/mL (≈ 3.11 µM)
- MIC ([14]; GC2216, read-out: MINIMAL INHIBITORY CONCENTRATION MIC, Water): 4 µg/mL (≈ 6.21 µM)
- MIC ([15]; GC4556, read-out: MINIMAL INHIBITORY CONCENTRATION MIC, Human Serum): 4 µg/mL (≈ 6.21 µM)
- MIC ([15]; GC4556, read-out: MINIMAL INHIBITORY CONCENTRATION MIC, Mouse Serum): 4 µg/mL (≈ 6.21 µM)
- MIC ([15]; GC4556, read-out: MINIMAL INHIBITORY CONCENTRATION MIC, Water): 4 µg/mL (≈ 6.21 µM)
- MIC ([16]; GC2272, read-out: MINIMAL INHIBITORY CONCENTRATION MIC, Human Serum): 32 µg/mL (≈ 49.7 µM)
- MIC ([16]; GC2272, read-out: MINIMAL INHIBITORY CONCENTRATION MIC, Mouse Serum): 32 µg/mL (≈ 49.7 µM)
- MIC ([16]; GC2272, read-out: MINIMAL INHIBITORY CONCENTRATION MIC, Water): 64 µg/mL (≈ 99.4 µM)
- MIC ([17]; GC2243, read-out: MINIMAL INHIBITORY CONCENTRATION MIC, Human Serum): 2 µg/mL (≈ 3.11 µM)
- MIC ([17]; GC2243, read-out: MINIMAL INHIBITORY CONCENTRATION MIC, Mouse Serum): 2 µg/mL (≈ 3.11 µM)
- MIC ([17]; GC2243, read-out: MINIMAL INHIBITORY CONCENTRATION MIC, Water): 4 µg/mL (≈ 6.21 µM)
- MIC ([18]; GC2231, read-out: MINIMAL INHIBITORY CONCENTRATION MIC, Human Serum): > 64 µg/mL
- MIC ([18]; GC2231, read-out: MINIMAL INHIBITORY CONCENTRATION MIC, Mouse Serum): > 64 µg/mL
- MIC ([18]; GC2231, read-out: MINIMAL INHIBITORY CONCENTRATION MIC, Water): > 64 µg/mL
- MIC ([19]; GC1131, read-out: MINIMAL INHIBITORY CONCENTRATION MIC, Human Serum): 2 µg/mL (≈ 3.11 µM)
- MIC ([19]; GC1131, read-out: MINIMAL INHIBITORY CONCENTRATION MIC, Mouse Serum): 2 µg/mL (≈ 3.11 µM)
- MIC ([19]; GC1131, read-out: MINIMAL INHIBITORY CONCENTRATION MIC, Water): 8 µg/mL (≈ 12.4 µM)
